“Also recorded” adds a separate entry of the source. Like-named read-outs stand apart in the source and are kept apart here. * marks the point of attachment. butyroxycarboxy = not defined here; pNA = O=[N+]([O-])c1ccc(N*)cc1
Columns and labels:
Type in all cases: biochemical, Alkaliphillus transvaalensis
alkaline protease ALTP [1] = experiment: Action on synthetic substrates (synthetic substrate method, p-nitroaniline release); details: for Relative activity (%): activity to AAPF = 100%, pH 10.0, 30° C., 10 minutes
Description: 0.9 ml of 100 mmol/L borate buffer (pH=10.0, containing 2 mmol/L calcium chloride) was mixed with 0.05 ml of a 50 mmol/L synthetic substrate solution (solution obtained by dissolving a p-nitroanilide derivative of an oligopeptide in dimethyl sulfoxide), and the mixture was warmed at 30° C. for 5 minutes. Then, 0.05 ml of the enzyme solution was added, and a reaction was conducted at 30° C. for 10 minutes. 2 ml of a 5% (w/v) citric acid solution was added to terminate the reaction. Absorbance at 420 nm was measured with a spectrophotometer to quantify liberated p-nitroaniline.
Herein, one unit (PU) of the enzyme referred to an amount of an enzyme required to liberate 1 μmol of p-nitroaniline for 1 minute under the foregoing reaction conditions.
Reactivity of alkaline protease ALTP of the invention with each synthetic substrate was measured using synthetic oligopeptide substrates shown in Table 6.
0.9 ml of 100 mmol/L borate buffer (pH=10.0, containing 2 mmol/L calcium chloride) was mixed with 0.05 ml of a 50 mmol/L synthetic substrate solution shown in Table 6. After the mixture was warmed at 30° C. for 5 minutes, 0.05 ml of the enzyme solution was added thereto, and the reaction was conducted at 30° C. for 10 minutes. 2 ml of a 5% (w/v) citric acid solution was added to terminate the reaction. Absorbance at 420 nm was measured using a spectrophotometer, and p-nitroaniline liberated was quantified.
Target sequence in this assay (as listed by the source): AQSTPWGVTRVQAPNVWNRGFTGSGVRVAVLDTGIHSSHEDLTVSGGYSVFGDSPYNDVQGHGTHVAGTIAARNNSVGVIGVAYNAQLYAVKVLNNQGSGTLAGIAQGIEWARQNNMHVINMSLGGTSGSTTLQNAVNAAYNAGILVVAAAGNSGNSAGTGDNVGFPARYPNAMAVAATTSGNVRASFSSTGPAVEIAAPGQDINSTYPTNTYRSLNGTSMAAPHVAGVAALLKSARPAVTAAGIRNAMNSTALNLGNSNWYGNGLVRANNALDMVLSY

alkaline protease ALTP [2] = experiment: Influence of inhibitors on residual activity
Description: Each inhibitor was added to 20 mmol/L phosphate buffer (pH 7) at a predetermined concentration, and the invention enzyme was added thereto. The solution was warmed at 30° C. for 20 minutes. Subsequently, the resulting solution was approximately diluted with 50 mmol/L borate buffer (pH 10), and the residual activity was measured.

alkaline protease ALTP [3] = details: for Residual activity (%): pH 10
alkaline protease ALTP [4] = experiment: Influence of surfactants on residual activity (casein method); details: for Residual activity (%): pH 9.0, 40° C., 4 hours, time 0 = 100%
Description: Influence of surfactants on alkaline protease ALTP of the invention was examined. That is, the invention enzyme solution was added to 0.1 mol/L Tris-hydrochloride buffer (pH 9.0), and each of various surfactants shown in Table 4 was added to the solution. The treatment was conducted at 40° C. for 4 hours. Subsequently, the solution was properly diluted with 50 mmol/L borate buffer (pH 10.5) containing 2 mmol/L calcium chloride, and the residual activity was measured by the casein method. The residual activity was expressed in terms of a relative value when an activity value (treatment time 0 minute) immediately after addition of the enzyme to each sample was defined as 100%.

[5] = inhibitor 0.1 mM, pH 7, 30° C., 20 minutes
[6] = inhibitor 1.0 mM, pH 7, 30° C., 20 minutes

Compound: N- succinyl-Gly-Gly-Phe-p-nitroanilide (GGF; HELM PEPTIDE1{[O=C(O)CCC(=O)[*:2]].G.G.F.[O=[N+]([O-])c1ccc(N[*:1])cc1]}$$$$V2.0; SMILES O=C(O)CCC(=O)NCC(=O)NCC(=O)N[C@@H](Cc1ccccc1)C(=O)Nc1ccc([N+](=O)[O-])cc1) [synthetic substrate]
- activity to further synthetic substrates (alkaline protease ALTP [1]): showed activity

Compound: CC(=O)N[C@@H](CC(C)C)C(=O)N[C@@H](CC(C)C)C(=O)N[C@H](C=O)CCCNC(=N)N [Leupeptin]
- Residual activity (%) (alkaline protease ALTP [2]; [5]): 100%

Compound: O=C(O)CN(CCN(CC(=O)O)CC(=O)O)CC(=O)O [EDTA, ethylenediamine tetraacetic acid]
- inhibition (alkaline protease ALTP [2]; 100 mM): little inhibited; also recorded: not inhibited
- Residual activity (%) (alkaline protease ALTP [2]; inhibitor 100 mM, pH 7, 30° C., 20 minutes): 100%

Compound: O=C(O)c1cc[c]([Hg][Cl])cc1 [p-chloromercuribenzoic acid]
- inhibition (alkaline protease ALTP [2]; 1 mM): little inhibited

Compound: N-succinyl-Ala-Ala-Pro-Phe-p-nitroanilide [AAPF]
- Relative activity (%) (alkaline protease ALTP [1]): 100%

Compound: [Cl][Mn][Cl] [MnCl2]
- inhibition by metal ion (alkaline protease ALTP [3]; concentration of 1 mM): not inhibited
- Residual activity (%) (alkaline protease ALTP [3]): 113%

Compound: [Cl][Cd][Cl] [CdCl2]
- inhibition by metal ion (alkaline protease ALTP [3]; concentration of 1 mM): not inhibited
- Residual activity (%) (alkaline protease ALTP [3]): 100%

Compound: [Cl-].[Cl-].[Co+2] [CoCl2]
- inhibition by metal ion (alkaline protease ALTP [3]): not inhibited
- Residual activity (%) (alkaline protease ALTP [3]): 92%

Compound: N-succinyl-Ala-Ala-p-nitroanilide [AA]
- activity to further synthetic substrates (alkaline protease ALTP [1]): showed activity

Compound: [Cl][Pb][Cl] [PbCl2]
- inhibition by metal ion (alkaline protease ALTP [3]; concentration of 1 mM): not inhibited
- Residual activity (%) (alkaline protease ALTP [3]): 115%

Compound: triton X-100
- inhibition (alkaline protease ALTP [2]; 1%): little inhibited

Compound: NC(N)=O [urea]
- inhibition (alkaline protease ALTP [2]; 0.5 M): little inhibited

Compound: CCCCCCCCCCCCOS(=O)(=O)[O-].[Na+] [Sodium dodecyl sulfate]
- inhibition of activity by surfactant (alkaline protease ALTP [4]): not inhibited
- Residual activity (%) (alkaline protease ALTP [4]; surfactant 10.0%): 104%
- inhibition (alkaline protease ALTP [2]; 1 mM): little inhibited

Compound: O=C1CCC(=O)N1Br [N-bromosuccinic acid imide]
- Residual activity (%) (alkaline protease ALTP [2]; [6]): 104%

Compound: [Cl][Fe][Cl] [FeCl2]
- Residual activity (%) (alkaline protease ALTP [3]): 120%

Compound: [Cl][Ni][Cl] [NiCl2]
- inhibition by metal ion (alkaline protease ALTP [3]; concentration of 1 mM): not inhibited
- Residual activity (%) (alkaline protease ALTP [3]): 94%

Compound: [Cl-].[Cl-].[Mg+2] [MgCl2]
- inhibition by metal ion (alkaline protease ALTP [3]; concentration of 1 mM): not inhibited
- Residual activity (%) (alkaline protease ALTP [3]): 105%

Compound: Sodium polyoxyethylene alkyl sulfate
- inhibition of activity by surfactant (alkaline protease ALTP [4]): not inhibited
- Residual activity (%) (alkaline protease ALTP [4]; surfactant 1.0%): 99%

Compound: [Cl-].[K+] [KCl]
- inhibition by metal ion (alkaline protease ALTP [3]; concentration of 1 mM): not inhibited
- Residual activity (%) (alkaline protease ALTP [3]): 111%

Compound: Polyoxyethylene alkyl alcohol
- inhibition of activity by surfactant (alkaline protease ALTP [4]): not inhibited
- Residual activity (%) (alkaline protease ALTP [4]; surfactant 1.0%): 107%

Compound: N-p-tosyl-Gly-Pro-Lys-p-nitroanilide ({p‑tosyl}-Gly-Pro-Lys-pNA) [To-GPK, synthetic substrate]
- activity to further synthetic substrates (alkaline protease ALTP [1]): showed activity

Compound: Sodium α-olefin sulfonate
- inhibition of activity by surfactant (alkaline protease ALTP [4]): not inhibited
- Residual activity (%) (alkaline protease ALTP [4]; surfactant 1.0%): 128%

Compound: N-succinyl-Ala-Ala-Val-Ala-p- nitroanilide (AAVA; HELM PEPTIDE1{[O=C(O)CCC(=O)[*:2]].A.A.V.A.[O=[N+]([O-])c1ccc(N[*:1])cc1]}$$$$V2.0; SMILES CC(C)[C@H](NC(=O)[C@H](C)NC(=O)[C@H](C)NC(=O)CCC(=O)O)C(=O)N[C@@H](C)C(=O)Nc1ccc([N+](=O)[O-])cc1) [synthetic substrate]
- Relative activity (%) (alkaline protease ALTP [1]): 4.6%

Compound: N-glutaryl-Ala-Ala-Pro-Leu-p-nitroanilide (AAPL; HELM PEPTIDE1{[O=C(O)CCCC(=O)[*:2]].A.A.P.L.[O=[N+]([O-])c1ccc(N[*:1])cc1]}$$$$V2.0; SMILES CC(C)C[C@H](NC(=O)[C@@H]1CCCN1C(=O)[C@H](C)NC(=O)[C@H](C)NC(=O)CCCC(=O)O)C(=O)Nc1ccc([N+](=O)[O-])cc1) [synthetic substrate]
- Relative activity (%) (alkaline protease ALTP [1]): 91%

Compound: Sodium alkane sulfonate
- inhibition of activity by surfactant (alkaline protease ALTP [4]): not inhibited
- Residual activity (%) (alkaline protease ALTP [4]; surfactant 10.0%): 107%

Compound: O=S(=O)(F)Cc1ccccc1 [PMSF, phenylmethanesulfonyl fluoride]
- inhibition (alkaline protease ALTP [2]; 1 mM): completely inhibited
- Residual activity (%) (alkaline protease ALTP [2]; [6]): 0%

Compound: N-succinyl-Ala-Ala-Ala-p-nitroanilide [AAA]
- activity to further synthetic substrates (alkaline protease ALTP [1]): showed activity

Compound: [Cl-].[Cl-].[Zn+2] [ZnCl2]
- inhibition by metal ion (alkaline protease ALTP [3]; concentration of 1 mM): not inhibited
- Residual activity (%) (alkaline protease ALTP [3]): 121%

Compound: [Cl][Sn][Cl] [SnCl2]
- inhibition by metal ion (alkaline protease ALTP [3]; concentration of 1 mM): not inhibited
- Residual activity (%) (alkaline protease ALTP [3]): 108%

Compound: [Ca+2].[Cl-].[Cl-] [CaCl2]
- inhibition by metal ion (alkaline protease ALTP [3]; concentration of 1 mM): not inhibited
- Residual activity (%) (alkaline protease ALTP [3]): 118%

Compound: [Cl][Hg][Cl] [HgCl2]
- inhibition by metal ion (alkaline protease ALTP [3]; concentration of 1 mM): inhibited
- Residual activity (%) (alkaline protease ALTP [3]): 15%

Compound: O=C(O)CI [Iodine acetate]
- Residual activity (%) (alkaline protease ALTP [2]; pH 7): 104%

Compound: N-carboxybenzoxy-Phe-Val-Arg-p-nitroanilide (carboxybenzoxy-Phe-Val-Arg-pNA) [Z-FVR, synthetic substrate]
- activity to further synthetic substrates (alkaline protease ALTP [1]): showed activity

Compound: [Cl-].[Na+] [NaCl]
- inhibition by metal ion (alkaline protease ALTP [3]): not inhibited
- Residual activity (%) (alkaline protease ALTP [3]): 112%

Compound: Linear sodium alkylbenzene sulfonate
- inhibition of activity by surfactant (alkaline protease ALTP [4]): not inhibited
- Residual activity (%) (alkaline protease ALTP [4]; surfactant 1.0%): 98%

Compound: CC(C)C[C@H](NC(=O)[C@@H](O)[C@H](N)Cc1ccccc1)C(=O)O [Bestatin]
- Residual activity (%) (alkaline protease ALTP [2]; [5]): 106%

Compound: N-succinyl-Ala-Ala-Pro-Met-p-nitroanilide (AAPM; HELM PEPTIDE1{[O=C(O)CCC(=O)[*:2]].A.A.P.M.[O=[N+]([O-])c1ccc(N[*:1])cc1]}$$$$V2.0; SMILES CSCC[C@H](NC(=O)[C@@H]1CCCN1C(=O)[C@H](C)NC(=O)[C@H](C)NC(=O)CCC(=O)O)C(=O)Nc1ccc([N+](=O)[O-])cc1) [synthetic substrate]
- Relative activity (%) (alkaline protease ALTP [1]): 74%

Compound: CC(C)C[C@H](NC(=O)[C@@H](NC(=O)N[C@@H](Cc1ccccc1)C(=O)O)[C@@H]1CCN=C(N)N1)C(=O)N[C@H](C=O)Cc1ccccc1 [Chymostatin]
- inhibition (alkaline protease ALTP [2]; 30 ppm): completely inhibited
- Residual activity (%) (alkaline protease ALTP [2]; inhibitor 30 ppm, pH 7, 30° C., 20 minutes): 0%

Compound: [Ba+2].[Cl-].[Cl-] [BaCl2]
- inhibition by metal ion (alkaline protease ALTP [3]; concentration of 1 mM): not inhibited
- Residual activity (%) (alkaline protease ALTP [3]): 100%

Compound: [Cl][Fe]([Cl])[Cl] [FeCl3]
- Residual activity (%) (alkaline protease ALTP [3]): 110%

Compound: [Cl-].[Li+] [LiCl2]
- inhibition by metal ion (alkaline protease ALTP [3]; concentration of 1 mM): not inhibited
- Residual activity (%) (alkaline protease ALTP [3]): 114%

Compound: N-methoxysuccinyl- Ala-Ile-Pro-Met-p-nitroanilide (AIPM; HELM PEPTIDE1{[COC(=O)CCC(=O)[*:2]].A.I.P.M.[O=[N+]([O-])c1ccc(N[*:1])cc1]}$$$$V2.0; SMILES CC[C@H](C)[C@H](NC(=O)[C@H](C)NC(=O)CCC(=O)OC)C(=O)N1CCC[C@H]1C(=O)N[C@@H](CCSC)C(=O)Nc1ccc([N+](=O)[O-])cc1) [synthetic substrate]
- Relative activity (%) (alkaline protease ALTP [1]): 90%

Compound: butyroxycarboxy-Leu-Ser- Thr-Arg-p-nitroanilide (butyroxycarboxy-LSTR-pNA; reading uncertain) [synthetic substrate]
- activity to further synthetic substrates (alkaline protease ALTP [1]): showed activity

Compound: α-sulfo-fatty acid ester
- inhibition of activity by surfactant (alkaline protease ALTP [4]): not inhibited
- Residual activity (%) (alkaline protease ALTP [4]; surfactant 1.0%): 106%

Compound: [Cl][Cu][Cl] [CuCl2]
- inhibition by metal ion (alkaline protease ALTP [3]; concentration of 1 mM): not inhibited
- Residual activity (%) (alkaline protease ALTP [3]): 109%

Source: patent US8153413B2, “High alkaline protease and use thereof” (Japan Agency for Marine-Earth Science and Technology, priority 2004, dated 2012)
